Measurements: ChEMBL document CHEMBL1149624, “9-Substituted berberine derivatives as G-quadruplex stabilizing ligands in telomeric DNA” (Bioorg Med Chem, 2007)

Assays:
[1] = Inhibition of telomerase expressed in MCF7 cells by TRAP assay; type: cell-based, Homo sapiens
Homo sapiens [2] = species on record: Homo sapiens; assay: Binding affinity to human telo21 G-quadruplex DNA assessed as thermal stability in tris-HCl buffer at pH 7.4
Homo sapiens [3] = species on record: Homo sapiens; assay: Binding affinity to human telo21 G-quadruplex DNA assessed as change in thermal stability in tris-HCl buffer at pH 7.4
[4] = Inhibition of amplification in human telo21 G-quadruplex DNA by PCR stop assay

IC50 [1] [µM]	Tm (Homo sapiens [2]) [°C]	ΔTm (Homo sapiens [3]) [°C]	IC50 [4] [µM]	SMILES
7.5	63.1	23	0.7	COc1ccc2cc3[n+](cc2c1OCCCN1CCNCC1)CCc1cc2c(cc1-3)OCO2
25	51.7	11.6	2.3	COc1ccc2cc3[n+](cc2c1OCCN(C(C)C)C(C)C)CCc1cc2c(cc1-3)OCO2
75	44	3.9	2.1	COc1ccc2cc3[n+](cc2c1OC)CCc1cc2c(cc1-3)OCO2 [BERBERINE CHLORIDE]
25	57	16.9	2.3	CCN(CC)CCOc1c(OC)ccc2cc3[n+](cc12)CCc1cc2c(cc1-3)OCO2
